# Experimental data reported in patent US8906904B2, “Alkoxy pyrazoles as soluble guanylate cyclase activators” (Boehringer Ingelheim International GmbH, priority 2012, dated 2014).
# Target: T1, human soluble guanylate cyclase alpha 1 and beta 1 subunits (sGC) (Homo sapiens, UniProt Q02108+Q02153)
# T1 construct: expressed in transfected cells; host or cells: Chinese hamster ovary (CHO) cells, stably transfected
# T1 sequence (Q02108 1-690): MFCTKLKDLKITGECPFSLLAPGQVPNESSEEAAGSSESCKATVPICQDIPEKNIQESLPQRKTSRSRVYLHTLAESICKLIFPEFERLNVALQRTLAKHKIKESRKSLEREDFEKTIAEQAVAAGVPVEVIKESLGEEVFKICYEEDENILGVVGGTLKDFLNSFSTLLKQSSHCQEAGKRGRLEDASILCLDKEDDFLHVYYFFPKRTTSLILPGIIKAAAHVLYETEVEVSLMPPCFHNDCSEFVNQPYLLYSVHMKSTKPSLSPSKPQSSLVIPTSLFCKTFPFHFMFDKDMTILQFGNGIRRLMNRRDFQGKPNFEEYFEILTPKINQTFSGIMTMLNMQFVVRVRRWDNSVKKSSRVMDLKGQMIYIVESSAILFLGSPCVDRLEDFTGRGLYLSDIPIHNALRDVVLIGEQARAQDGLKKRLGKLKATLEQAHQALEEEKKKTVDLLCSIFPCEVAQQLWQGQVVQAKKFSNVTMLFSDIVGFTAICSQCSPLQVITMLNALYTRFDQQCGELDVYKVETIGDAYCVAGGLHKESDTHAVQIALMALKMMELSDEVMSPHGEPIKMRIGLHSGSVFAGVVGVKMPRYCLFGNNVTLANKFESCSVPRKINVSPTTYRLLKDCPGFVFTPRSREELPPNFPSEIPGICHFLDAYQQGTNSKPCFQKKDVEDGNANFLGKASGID
# T1 sequence (Q02153 1-619): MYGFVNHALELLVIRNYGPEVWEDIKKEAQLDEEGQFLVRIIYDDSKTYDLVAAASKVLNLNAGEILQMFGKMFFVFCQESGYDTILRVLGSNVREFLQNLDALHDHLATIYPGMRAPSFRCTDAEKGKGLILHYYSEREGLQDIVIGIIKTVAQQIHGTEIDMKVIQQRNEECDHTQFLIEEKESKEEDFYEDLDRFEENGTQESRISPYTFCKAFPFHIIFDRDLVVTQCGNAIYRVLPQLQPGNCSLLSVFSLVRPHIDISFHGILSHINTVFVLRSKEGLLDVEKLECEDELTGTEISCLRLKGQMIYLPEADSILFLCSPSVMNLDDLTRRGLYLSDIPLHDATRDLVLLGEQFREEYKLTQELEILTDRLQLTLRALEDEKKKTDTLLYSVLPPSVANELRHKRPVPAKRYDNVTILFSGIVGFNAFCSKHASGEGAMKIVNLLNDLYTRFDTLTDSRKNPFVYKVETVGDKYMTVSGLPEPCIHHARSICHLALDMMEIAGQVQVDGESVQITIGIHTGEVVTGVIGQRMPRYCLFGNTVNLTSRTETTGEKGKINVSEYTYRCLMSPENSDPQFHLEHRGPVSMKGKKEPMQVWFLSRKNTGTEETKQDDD
# Test: sGC cellular activator assay (cGMP, HTRF)
# Format: cell-based
# Details: CHO cells stably expressing human sGC alpha 1/beta 1, preincubated with 40 microM ODQ; cGMP readout; assay run with and without 50% human serum, Table 2 does not say which
# Summary of the method: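 First, CHO-sGC (human α1β1) cells get 1 h ODQ at 40 microM with IBMX and 0.1% BSA. Finally, cGMP is quantified by HTRF and EC50 computed.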
row,EC50,SMILES
1,14 nM,COc1c(C(=O)O)cnn1-c1cccc(-c2cccc(C)c2OCc2ccc3c(c2Cl)CCN(C2CCOC2)C3)n1 (centres unmarked) [Compound 22]
2,5.1 nM,COc1c(C(=O)O)cnn1-c1cccc(-c2cccc(C)c2OCc2ccc3c(c2C)CCN(C2CCCOC2)C3)n1 (centres unmarked) [Compound 238]
3,54 nM,COc1c(C(=O)O)cnn1-c1cccc(-c2cccc(C)c2OCc2ccc3c(c2)CCN(CC2CC2)C3)n1 [Compound 24]
4,140 nM,COc1c(C(=O)O)cnn1-c1cccc(-c2cccc(C)c2OCc2ccc3c(c2)C(C)(C)CN(CC2COCCO2)C3)n1 (centres unmarked) [Compound 219]
5,28 nM,COc1c(C(=O)O)cnn1-c1cccc(-c2cccc(C)c2OCc2ccc3c(c2)CCN(C2CCOC2)C3)n1 (centres unmarked) [Compound 15]
6,30 nM,CCOc1c(C(=O)O)cnn1-c1cccc(-c2cccc(C)c2OCc2ccc3c(c2C)CCN(C[C@H]2CCCCO2)CC3)n1 [Compound 214]
7,30 nM,CCOc1c(C(=O)O)cnn1-c1cccc(-c2cccc(C)c2OCc2ccc3c(c2C)CCN(C[C@@H]2COCCO2)CC3)n1 [Compound 211]
8,20 nM,CCOc1c(C(=O)O)cnn1-c1cccc(-c2cccc(C)c2OCc2ccc3c(c2C)CCN(CC2(F)COC2)C3)n1 [Compound 208]
9,5.4 nM,COc1c(C(=O)O)cnn1-c1cccc(-c2cccc(C)c2OCc2ccc3c(c2C)CCN(C[C@H]2CCCO2)CC3)n1 [Compound 222]
10,16 nM,COc1c(C(=O)O)cnn1-c1cccc(-c2cccc(C)c2OCc2ccc3c(c2)CCN(CC2CCC2)C3)n1 [Compound 25]
11,13 nM,COc1c(C(=O)O)cnn1-c1cccc(-c2cccc(C)c2OCc2ccc3c(c2F)CCN(C[C@H]2COCCO2)C3)n1 [Compound 234]
12,9 nM,COc1c(C(=O)O)cnn1-c1cccc(-c2cccc(C)c2OCc2ccc3c(c2C)CCN(C[C@H]2CCCCO2)C3)n1 [Compound 199]
13,30 nM,"CCOc1c(C(=O)O)cnn1-c1cccc(-c2cccc(C)c2OCc2ccc3c(c2C)CCN(CC2COCCO2)C3)n1 (stereo in doubt) [Compound 185, 1-{6-[2-(2-(S)-1-[1,4]Dioxan-2-ylmethyl-5-methyl-1,2,3,4-tetrahydro-isoquinolin-6-ylmethoxy)-3-methyl-phenyl]-pyridin-2-yl}-5-ethoxy-1H-pyrazole-4-carboxylic acid]"
14,44 nM,COc1c(C(=O)O)cnn1-c1cccc(-c2cccc(C)c2OCc2cc(C#N)c3c(c2)CCN(C2CCOCC2)C3)n1 [Compound 250]
15,4.7 nM,CCOc1c(C(=O)O)cnn1-c1cccc(-c2cccc(C)c2OCc2cc(C)c3c(c2)CCN([C@@H]2CCCOC2)C3)n1 [Compound 195]
16,5 nM,COc1c(C(=O)O)cnn1-c1cccc(-c2cccc(C)c2OCc2ccc3c(c2)CCN(CC2CC(F)(F)C2)C3)n1 [Compound 26]
17,8.6 nM,COc1c(C(=O)O)cnn1-c1cccc(-c2cccc(C)c2OCc2ccc3c(c2)CN(CC2COCCO2)C3)n1 (centres unmarked) [Compound 247]
18,62 nM,COc1c(C(=O)O)cnn1-c1cccc(-c2cc(C)cc(C)c2OCc2ccc3c(c2)CCN(C2CCOCC2)C3)n1 [Compound 181]
19,12 nM,CCOc1c(C(=O)O)cnn1-c1cccc(-c2cccc(C)c2OCc2ccc3c(c2C)CCN(C[C@H]2CCO2)CC3)n1 [Compound 226]
20,19 nM,CCOc1c(C(=O)O)cnn1-c1cccc(-c2cccc(C)c2OCc2cc(C)c3c(c2)CCN([C@H]2CCCOC2)C3)n1 [Compound 197]
21,4.2 nM,CCc1cc(COc2c(C)cccc2-c2cccc(-n3ncc(C(=O)O)c3OC)n2)cc2c1CN(C1CCOCC1)CC2 [Compound 248]
22,12 nM,COc1c(C(=O)O)cnn1-c1cccc(-c2cccc(C)c2OCc2ccc3c(c2C)CCN(C2CCOCC2)CC3)n1 [Compound 184]
23,18 nM,COc1c(C(=O)O)cnn1-c1cccc(-c2cccc(C)c2OCc2ccc3c(c2Cl)CCN(C2COC2)C3)n1 [Compound 17]
24,210 nM,CCOc1c(C(=O)O)cnn1-c1cccc(-c2cccc(C)c2OCc2ccc3c(c2OC)CCN(C2COC2)C3)n1 [Compound 221]
25,28 nM,CCOc1c(C(=O)O)cnn1-c1cccc(-c2cccc(C)c2OCc2ccc3c(c2C)CCN(C[C@@H]2CCCCO2)C3)n1 [Compound 236]
26,17 nM,COc1c(C(=O)O)cnn1-c1cccc(-c2cccc(C)c2OCc2ccc3c(c2Cl)CCN(CC2(C)COC2)C3)n1 [Compound 19]
27,13 nM,COc1c(C(=O)O)cnn1-c1cccc(-c2cccc(C)c2OCc2ccc3c(c2C)CCN(CC2(C)COC2)C3)n1 [Compound 28]
28,150 nM,CCOc1c(C(=O)O)cnn1-c1cccc(-c2cccc(C)c2OCc2ccc3c(c2OC)CCN(C2CCOCC2)C3)n1 [Compound 220]
29,4.5 nM,COc1c(C(=O)O)cnn1-c1cccc(-c2cccc(C)c2OCc2ccc3c(c2C)CCN(C[C@@H]2COCCO2)CC3)n1 [Compound 204]
